Results: PMC12817916, “A small-molecule HSP90 inhibitor, NVP-HSP990, alleviates rotavirus infection” (Journal of Virology, 2025)

Assays:
RV VP2, VP6, NSP4, NSP5 = experiment: RV gene transcription and antigen expression in Caco-2 cells (qPCR, WB, IFA); format: cell-based, Rotavirus; settings: RV-infected Caco-2 cells, 18 h
Protocol: Caco-2 cells growing on coverslips were mock-infected with PBS or infected with RV Wa or SA11 strains (MOI = 1), then the cells were cultivated with DMEM containing 100 nM NVP-HSP990 or an equal volume of DMSO as a control for another 18 h after infection. The cells were then washed with PBS, fixed in 4% paraformaldehyde for 20 min, followed by permeabilization in 0.5% Triton X-100 for 10 min and blocking with 5% BSA (Beyotime, China) for 1 h at room temperature. The cells were then incubated with rabbit anti-ZO-1 monoclonal antibody (CST, USA) (1:100) or rabbit anti-RV VP6 polyclonal antibodies (CUSABIO, China) (1:50) for 2 h at room temperature, washed twice with PBS, and incubated with Cy3-conjugated goat anti-rabbit antibodies (Beyotime, China) (1:500) for 1 h at room temperature. In some experiments, the cells were also stained with FITC-conjugated goat anti-RV antibodies (Virostat, USA) (1:100) for 1 h at room temperature and followed by 5 µg/mL 2-(4-amidinophenyl)-6-indolecarbamidine dihydrochloride (DAPI) (Sigma-Aldrich, USA) staining for 10 min. The triple-stained cells were washed twice with PBS and mounted in Prolong Gold Antifade Reagent (CST, USA). Microscopic images were acquired with an EVOS M5000 system (Thermo Fisher Scientific, USA) using the built-in Celleste software (v.6.0). […] Minimal post-processing (image cropping and annotations) was applied through Adobe Illustrator 2019 (Adobe Systems, USA) to ensure readability. […]
MA104, Caco-2, and HT-29 cells were mock-infected with PBS, infected with RV Wa or SA11 strains (MOI = 3), or treated with 1 µM C16-PAF (C16) for 1 h. […] After protein quantification with a BCA kit (Beyotime, China), the protein samples were mixed with 25 µL 5× SDS loading buffer (Beyotime, China), boiled at 100°C for 5 min, chilled on ice, vortexed for seconds, and centrifuged at 12,000 × g for 3 min at room temperature. […]
(A) Caco-2 cells were infected with RV (Wa or SA11 strains) at varying MOIs (0.001–10), followed by treatment with 100 nM NVP-HSP990 or an equal volume of DMSO (as a control) for 24 h. Viral replication was assessed using PFA. […]

[1] = system: MAPK signaling pathway (ERK1/2, p38 MAPK, SAPK/JNK); experiment: Western blot of MAPK components; format: cell-based; settings: WB; for MAPK activation (especially ERK1/2 and p38 MAPK): 100 nM, 20 h
Protocol: MA104, Caco-2, and HT-29 cells were mock-infected with PBS, infected with RV Wa or SA11 strains (MOI = 3), or treated with 1 µM C16-PAF (C16) for 1 h. After removing the viruses or C16-PAF and washing cells two times with DMEM, the cells were cultivated with 2 mL DMEM containing 100 nM NVP-HSP990 (+), an equal volume of DMSO (−), or 1 µM C16-PAF at 37°C and 5% CO2 for 20 h. Then, the cells in each well (~5 × 10^5 cells) were lysed with 100 µL RIPA lysis buffer (Beyotime, China) plus protease inhibitor cocktail (Thermo Fisher Scientific, USA). The cell lysates were collected in 1.5 mL EP tubes, sonicated five times for 15 s at 80 watts on ice, and clarified by centrifugation at 12,000 × g for 10 min at 4°C. After protein quantification with a BCA kit (Beyotime, China), the protein samples were mixed with 25 µL 5× SDS loading buffer (Beyotime, China), boiled at 100°C for 5 min, chilled on ice, vortexed for seconds, and centrifuged at 12,000 × g for 3 min at room temperature. Twenty micrograms of protein was subjected to protein electrophoresis in precast 4–20% SDS-PAGE gels (Beyotime, China), and then transferred to 0.22 µm PVDF membranes (Millipore, USA). After blocking with 5% BSA, the membranes were incubated with rabbit antibodies to MAPK components (SAPK/JNK, phospho-SAPK/JNK, p38 MAPK, phospho-p38 MAPK, ERK1/2, phospho-ERK1/2) (CST, USA), rabbit anti-RV VP6/VP7 polyclonal antibodies (CUSABIO, China), or mouse mAb to β-actin (Servicebio, China) as an internal reference. Afterward, the membranes were incubated with horseradish peroxidase-conjugated rat anti-rabbit IgG (CST, USA) or rat anti-mouse IgG (CST, USA). Immunoreactive bands were visualized using enhanced chemiluminescence substrate BeyoECL Plus (Beyotime, China).
Fig 4 NVP-HSP990 inhibited MAPK activation and facilitated expression of tight junction-associated proteins in intestinal cells. […]
Supplementary Fig. 7. […] The grayscale values of WB bands were quantified, and the relative protein levels of MAPK components were normalized to β-actin. […]

SMILES: COc1cccc(-c2cc(F)ccc2[C@H]2Cc3nc(N)nc(C)c3C(=O)N2)n1 [NVP-HSP990]
- RV VP6 expression (IFA) (RV VP2, VP6, NSP4, NSP5; 100 nM): potent inhibition
- RNA synthesis of RV proteins VP2, VP6, NSP4, and NSP5 (qPCR) (RV VP2, VP6, NSP4, NSP5; MOI = 1, 100 nM): significant reduction
- RV structural protein VP6 (WB) (RV VP2, VP6, NSP4, NSP5; MOI = 1, 100 nM): remarkably reduced
- MAPK activation caused by non-infectious factors (drug stimulation) ([1]; Caco-2 cells, 1 µM C16-PAF, 100 nM NVP-HSP990, 20 h): potently inhibited
- MAPK activation (especially ERK1/2 and p38 MAPK) ([1]; RV-infected Caco-2 and HT-29 cells): significantly inhibited
- MAPK activation (especially ERK1/2 and p38 MAPK) ([1]; RV-infected MA104 cells): not
